pIC50: −log10 of the molar value. Counter-ions that a name gives are not always drawn. Like-named read-outs stand apart in the source and are kept apart here.
Assays:
MAO-B enzyme = MAO-B enzyme (Homo sapiens (Human), UniProt P27338); assay: Measurement of MAO-B inhibitory activity (MAO-Glo Assay); settings: read-out: MAO-B IC50 value;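 further: luminescence read-out, compound preincubated 10 min with enzyme then reacted 60 min at room temperature, inhibition relative to enzyme reaction without compound, blank lacking enzyme and compound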
Experimental: The MAO-B inhibitory activity evaluation described below followed the protocol of MAO-Glo (registered trademark) Assay of Promega KK.
A test compound dissolved in 4% DMSO was added by 12.5 μL to 25 μL reaction solution (100 mM HEPES (pH 7.5), 5% glycerol, 10% DMSO) containing 400 ng of MAO-B enzyme (Sigma-Aldrich Co. LLC.), and the mixture was reacted at room temperature for 10 min. […] After reaction at room temperature for 60 min, Luciferine detection reagent (Promega KK) (50 μL) was added to terminate the reaction. After reaction at room temperature for 20 min with stirring, the luminescence was measured by Envision (PerkinElmer). The MAO-B inhibitory rate (%) of the test compound was calculated by the following formula. inhibitory rate(%)=(1−(test compound count−blank)÷(control−blank))×100
The count of the MAO-B enzyme reaction mixture under compound non-addition conditions is indicated as control, and the count under compound non-addition and MAO-B enzyme non-addition conditions is indicated as blank.

MAO-A enzyme = MAO-A enzyme (Homo sapiens (Human), UniProt P21397); assay: Measurement of MAO-A inhibitory activity (MAO-Glo Assay); assay type: biochemical
human LSD1(172-833) = human LSD1(172-833) (Homo sapiens (Human), UniProt O60341); assay: Measurement of LSD1 inhibitory activity (time-resolved fluorescence, biotin-histone H3 mono methylated K4 peptide); assay type: biochemical
Experimental: When the turbidity reached 500 Klett units, the culture temperature was changed to 16° C., IPTG (Isopropyl β-D-1-thiogalactopyranoside) having a final concentration of 0.5 mM was added to induce expression, and the cells were cultured further for 14 hr. The culture medium was centrifuged at 6,000 g for 15 min, and Escherichia coil pellets were recovered.
Using Branson ultrasonic disintegrator, the suspension was disrupted by ultrasonication for 3 min, and centrifuged at 33,000 g for 60 min, and the supernatant was recovered. […] It was concentrated to 10 mL with AmiconUltra (NWCO 30K) (Millipore Japan), and purified with HiLoad 26/60 Superdex 200 pg column (GE Healthcare) equilibrated with Buffer A to give hLSD1 purified product (8.4 mg). The protein concentration of hLSD1 was measured by BCA Protein Assay Kit (Thermo Fisher Scientific K.K.) using bovine serum albumin as the standard.
(5) Measurement of LSD1 Inhibitory Activity
After reaction at room temperature for 5 min, 1 mM 2-PCPA solution was added 5 μL to terminate the reaction. A detection solution ([…] potassium fluoride, 0.1% BSA) containing europium-labeled anti-histone H3 antibody (Wako Pure Chemical Industries, Ltd.) and Streptavidin-XL665 (Cisbio) was further added by 5 μL, and the mixture was left standing for 60 min.

[1] = test system: white blood cell number, red blood cell number, platelet number; assay: Evaluation of blood cell number in mouse; assay type: in vivo; settings: oral, Day 2 after administration
Experimental: Evaluation of Blood Cell Number in Mouse
(§1) Male ICR mice (hereinafter mice) were acclimated for at least one week in a rearing facility. The mice were raised in a rearing room with controlled temperature and humidity under a 12:12 hour light-dark cycle, and allowed free ingestion of feed and water.
The compounds were suspended in 0.5% methylcellulose/0.02% citric acid/distilled water and orally administered. All compounds were administered to the mice at a dose of 1 mg/kg, 10 mg/kg, 50 mg/kg or 100 mg/kg (body weight). On Day 2 after the administration of the compound, the whole blood was collected.
Using Sysmex XT-1800i (Sysmex Corporation), the white blood cell number, red blood cell number, and platelet number in the collected whole blood per unit volume were measured. The influence of each compound on each blood cell number was determined by comparing the number with the mean of each blood cell number of the mouse without administration of the compound (control group), and the numerical value of each blood cell number of a mouse with the administration of the compound is shown in percentage. percentage (%) of blood cell number of compound administration group as compared to control group=(mean blood cell number of compound administration group mean blood cell number of compound non-administration group)×100

[2] = Evaluation of hippocampal distribution in mouse; assay type: in vivo; settings: male ICR mice, 10 mg/kg oral; for concentration at 0.5 h / Kp at 0.5 h: 0.5 hr after administration; for Kp at 0.5 h / Kp at 1 h: hippocampus/plasma, read-out: hippocampus/plasma concentration ratio (mean); for concentration at 1 h / Kp at 1 h: 1 hr after administration
Experimental: Evaluation of Hippocampal Distribution in Mouse
as §1
The compounds were suspended in 0.5% methylcellulose/0.02% citric acid/distilled water and orally administered. All compounds were administered to the mice at a dose of 10 mg/kg (body weight).
Blood samples were collected at 0.5 hr, or 1 hr, or 1.5 hr from compound administration, and the hippocampus was isolated simultaneously. The plasma concentration and hippocampus concentration of each test compound were measured by the LC/MS/MS method, the ratio (hippocampus/plasma concentration ratio) was calculated, and distribution into hippocampus was evaluated.

[3] = hippocampus, read-out: hippocampus concentration (mean)
[4] = plasma, read-out: plasma concentration (mean)

MAO-A enzyme, sequence (P21397 whole entry): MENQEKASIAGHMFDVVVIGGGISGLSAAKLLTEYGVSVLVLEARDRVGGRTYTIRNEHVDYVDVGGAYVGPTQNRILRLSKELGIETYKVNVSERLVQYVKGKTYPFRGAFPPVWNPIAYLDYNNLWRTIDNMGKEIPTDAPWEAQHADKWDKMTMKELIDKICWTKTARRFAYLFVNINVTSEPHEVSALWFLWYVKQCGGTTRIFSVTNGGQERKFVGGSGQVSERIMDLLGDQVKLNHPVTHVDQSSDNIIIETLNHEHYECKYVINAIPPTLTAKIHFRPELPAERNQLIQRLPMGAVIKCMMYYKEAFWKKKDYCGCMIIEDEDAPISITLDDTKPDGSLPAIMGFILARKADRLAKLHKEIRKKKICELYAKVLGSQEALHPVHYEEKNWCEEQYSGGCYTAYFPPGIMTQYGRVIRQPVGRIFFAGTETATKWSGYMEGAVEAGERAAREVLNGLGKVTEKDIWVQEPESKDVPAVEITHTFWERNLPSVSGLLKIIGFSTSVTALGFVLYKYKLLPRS
MAO-B enzyme, sequence (P27338 whole entry): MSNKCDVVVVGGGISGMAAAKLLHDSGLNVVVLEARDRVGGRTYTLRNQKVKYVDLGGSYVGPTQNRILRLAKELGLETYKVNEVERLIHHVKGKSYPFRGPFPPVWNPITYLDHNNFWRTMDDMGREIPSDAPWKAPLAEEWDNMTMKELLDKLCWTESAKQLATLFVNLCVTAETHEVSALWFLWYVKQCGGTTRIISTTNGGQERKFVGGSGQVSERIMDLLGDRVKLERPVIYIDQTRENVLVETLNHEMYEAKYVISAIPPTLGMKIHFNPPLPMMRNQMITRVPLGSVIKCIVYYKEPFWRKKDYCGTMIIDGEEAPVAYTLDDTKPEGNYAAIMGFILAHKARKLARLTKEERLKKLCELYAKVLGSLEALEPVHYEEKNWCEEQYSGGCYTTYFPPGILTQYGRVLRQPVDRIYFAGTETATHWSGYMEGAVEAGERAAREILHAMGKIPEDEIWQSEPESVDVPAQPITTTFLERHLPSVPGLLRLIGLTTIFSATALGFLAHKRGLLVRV

| Structure (SMILES) | pIC50 (MAO-B enzyme) | pIC50 (MAO-A enzyme) | pIC50 (human LSD1(172-833)) | platelet number, percentage of compound administration group compared to control group, mean ([1]; 10 mg/kg) | red blood cell number, percentage of compound administration group compared to control group, mean ([1]; 10 mg/kg) | white blood cell number, percentage of compound administration group compared to control group, mean ([1]; 10 mg/kg) | platelet number, percentage of compound administration group compared to control group, mean ([1]; 100 mg/kg) | red blood cell number, percentage of compound administration group compared to control group, mean ([1]; 100 mg/kg) | white blood cell number, percentage of compound administration group compared to control group, mean ([1]; 100 mg/kg) | concentration at 0.5 h [2, 3] | Kp at 0.5 h [2] | concentration at 0.5 h [2, 4] | concentration at 1 h [2, 3] | Kp at 1 h [2] | concentration at 1 h [2, 4] |
| --- | --- | --- | --- | --- | --- | --- | --- | --- | --- | --- | --- | --- | --- | --- | --- |
| O=C(Nc1ccccc1)c1cccc([C@@H]2C[C@H]2NCC2CC2)c1 (relative stereo) [Example 13, 3-(trans-2-((cyclopropylmethyl)amino)cyclopropyl)-N-phenylbenzamide hydrochloride] | < 5.00 | < 5.00 | > 7.00 | – | – | – | – | – | – | – | – | – | – | – | – |
| O=C(NC1CCOCC1)c1cccc([C@@H]2C[C@H]2NC2CCC(F)(F)CC2)c1 (relative stereo) [Example 178, 3-(trans-2-((4,4-difluorocyclohexyl)amino)cyclopropyl)-N-(tetrahydro-2H-pyran-4-yl)benzamide hydrochloride] | – | – | – | 90.2% | 98.5% | 93.2% | 85.2% | 98.9% | 84.5% | 546 ng/g | 0.52 | 1050 ng/mL | – | – | – |
| O=C(NC1CCC(F)(F)CC1)c1cccc([C@@H]2C[C@H]2NCC2CC2)c1 (relative stereo) [Example 102, 3-(trans-2-((cyclopropylmethyl)amino)cyclopropyl)-N-(4,4-difluorocyclohexyl)benzamide hydrochloride] | – | – | – | 97.7% | 99.5% | 107.0% | 94.7% | 104.9% | 116.8% | – | – | – | 482 ng/g | 1.84 | 268 ng/mL |
| O=C(NC1CCOCC1)c1cccc([C@@H]2C[C@H]2NCC2CC2)c1 (relative stereo) [Example 100, 3-(trans-2-((cyclopropylmethyl)amino)cyclopropyl)-N-(tetrahydro-2H-pyran-4-yl)benzamide hydrochloride] | – | – | – | 98.1% | 92.9% | 99.4% | 91.0% | 98.8% | 104.8% | 207 ng/g | 0.24 | 889 ng/mL | – | – | – |
| Cn1cc(NC(=O)c2cccc([C@@H]3C[C@H]3NC3CCC3)c2)cn1 (relative stereo) [Example 169, 3-(trans-2-(cyclobutylamino)cyclopropyl)-N-(1-methyl-1H-pyrazol-4-yl)benzamide dihydrochloride] | – | – | – | 102.2% | 105.1% | 99.1% | 100.7% | 103.7% | 109.2% | – | – | – | 396 ng/g | 0.56 | 707 ng/mL |
| Cc1nnc(NC(=O)c2cccc([C@@H]3C[C@H]3NC3CCC(F)(F)CC3)c2)s1 (relative stereo) [Example 167, 3-(trans-2-((4,4-difluorocyclohexyl)amino)cyclopropyl)-N-(5-methyl-1,3,4-thiadiazol-2-yl)benzamide hydrochloride] | – | – | – | 105.3% | 102.5% | 86.4% | 103.2% | 102.4% | 68.2% | – | – | – | 915 ng/g | 0.74 | 1230 ng/mL |
| Cn1cc(NC(=O)c2cccc([C@@H]3C[C@H]3NC3CCC(F)(F)CC3)c2)cn1 (relative stereo) [Example 205, 3-(trans-2-((4,4-difluorocyclohexyl)amino)cyclopropyl)-N-(1-methyl-1H-pyrazol-4-yl)benzamide dihydrochloride] | – | – | – | 114.7% | 97.8% | 81.6% | 110.8% | 104.0% | 80.9% | – | – | – | 437 ng/g | 0.47 | 920 ng/mL |
| Cc1cc(NC(=O)c2cccc([C@@H]3C[C@H]3NC3CCC(F)(F)CC3)c2)n(C)n1 (relative stereo) [Example 215, 3-(trans-2-((4,4-difluorocyclohexyl)amino)cyclopropyl)-N-(1,3-dimethyl-1H-pyrazol-5-yl)benzamide dihydrochloride] | – | – | – | 100.7% | 98.4% | 113.3% | 91.2% | 99.8% | 124.7% | 481 ng/g | 0.31 | 1570 ng/mL | – | – | – |
| O=C(NC1CC(F)(F)C1)c1cc([C@@H]2C[C@H]2NCC2CC2)ccc1F (relative stereo) [Example 241, 5-(trans-2-((cyclopropylmethyl)amino)cyclopropyl)-N-(3,3-difluorocyclobutyl)-2-fluorobenzamide hydrochloride] | – | – | – | 102.6% | 96.9% | 94.6% | 89.2% | 99.0% | 101.9% | 878 ng/g | 5.31 | 167 ng/mL | – | – | – |
| Cc1nnc(NC(=O)c2cccc([C@@H]3C[C@H]3NCC3CCOCC3)c2)s1 (relative stereo) [Example 112, N-(5-methyl-1,3,4-thiadiazol-2-yl)-3-(trans-2-((tetrahydro-2H-pyran-4-ylmethyl)amino)cyclopropyl)benzamide dihydrochloride] | – | – | – | 92.8% | 99.4% | 112.0% | 86.3% | 102.0% | 136.1% | 614 ng/g | 0.36 | 1710 ng/mL | – | – | – |

Reference: US9751885B2, “Cyclopropanamine compound and use thereof” (Takeda Pharmaceutical Company Limited, priority 2012, dated 2017)
